In patent EP0934065B1, “NOVEL CRYPTOPHYCIN DERIVATIVES AS ANTI-NEOPLASTIC AGENTS” (priority 1996, dated 1998):
In brackets after ≈: the same amount, converted by molar mass. Counter-ions that a name gives are not always drawn. Like-named read-outs stand apart in the source and are kept apart here.

Legend:
physchem [1] = assay: physchem
Excerpt: Table 4. Solubility of cryptophycin glycinate 12 in various parenteral vehicles.

physchem [2] = assay type: physicochemical; details: for solubility: water
[3] = test system: GC3 human colon carcinoma cells; assay: cells; assay type: cell-based; details: 72 hours incubation, MTT
Protocol: Selected wells of a 96 well plate were seeded with GC3 human colon carcinoma cells ([…] cells in 100µl assay medium/well) twenty four hours prior to test compound addition. Cell free assay medium was added to other select wells of the 96 well plate. The assay medium (RPMI-1640 was the medium used; however, any medium that will allow the cells to survive would be acceptable) was supplemented with 10% dialyzed fetal bovine serum and 25 mM HEPES buffer.
The test compound was stored in an amber bottle prior to testing. Fresh dimethylsulfoxide stock solution (200µg/ml) was prepared immediately prior to preparation of test sample dilutions in phosphate-buffered saline (PBS). A dilution of 1:20 dimethylsulfoxide solution in PBS was prepared such that the final concentration was 10 µg/ml. Serial 1:3 dilutions using PBS (.5ml previous sample of 1ml PBS) were prepared. Falcon 2054 tubes were used for the assay.
A 10ul sample of each dilution of test compound was added in triplicate to wells of GC3 plates. The plates were incubated for 72 hours at about 37°C. A 10µl sample of stock […] salt ("MTT" 5 mg/ml in PBS) was added to each well. The plates were incubated for about an hour at 37°. The plates were centrifuged, media was decanted from the wells and 100µl acid-isopropanol (0.04 N HCl in isopropanol) was added to each well. The plate was read within one hour using a test wavelength of 570nm (SpectraMax reader).

[4] = test system: A-10 rat aortic smooth muscle cells; assay: Immunofluorescence: effects on the cytoskeleton; assay type: cell-based; details: A-10 cells, 2µM cytochalasin B, 24 hours
Protocol: (§1) A-10 cells are grown to near-confluency on glass coverslips in BME/10% FBS. Compounds in PBS are added to the indicated final concentrations and cells are incubated for an additional 24 hours. For the staining of microtubules and intermediate filaments, the cells are fixed with cold methanol and incubated with PBS containing 10% calf serum to block nonspecific binding sites. Cells are then incubated at 37°C for 60 min. With either monoclonal anti-β-tubulin or with monoclonal anti-vimentin at dilutions recommended by the manufacturer. Bound primary antibodies are subsequently visualized by a 45 minute incubation with fluorescein-conjugated rabbit antimouse IgG. The coverslips are mounted on microscope slides and the fluorescence patterns are examined and photographed using a Zeiss Photomicroscope I11 equipped with epifluorescence optics for fluorescein. […] PBS containing 100nM TRITC-phalloidin is then added and the mixture is allowed to incubate for 45 min. At 37°C. The cells are washed rapidly with PBS before the coverslips are mounted and immediately photographed as described above.
After 24 hours, microtubules and vimentin intermediate filaments are visualized by indirect immunofluorescence and microfilaments are stained using TRITC-phalloidin. The morphological effects of each drug is examined. […]

A-10 cells [5] = assay: Effects on taxol-stabilized microtubules; assay type: cell-based, rat
Protocol: as §1
After 24 hours, microtubule organization is examined by immunofluorescence as described above. […] Similarly, microtubules pretreated with taxol are observed with cryptophycin treatment.

A-10 cells [6] = assay: Reversibility of microtubule depolymerization; assay type: cell-based, rat; details: 100nM vinblastine 24 hr
Protocol: as §1
The cells are then washed and incubated in drug-free medium for periods of 1 hour or 24 hours. […] Cells are visualized for microtubule state after treatment with a cryptophycin compound of this invention at either 1 hour or 24 hours after removal of the cryptophycin compounds.

[7] = pH 8, room temperature, read-out: solubility value

Compound: COc1ccc(C[C@H]2NC(=O)/C=C/C[C@@H]([C@H](C)[C@@H](O)[C@@H](Cl)c3ccccc3)OC(=O)[C@H](CC(C)C)OC(=O)C(C)(C)CNC2=O)cc1Cl [Compound 1, cryptophycin 55]
- Comparative solubilities (physchem [1]; excipient 1: Propylene Glycol 15, Ethanol 10 %v/v, volume adjusted 0.05M acetate buffer, BQL = Below quantitation limit, approximately 0.001 mg/ml): BQL
- aqueous solubility over the pH range studied (physchem [2]; aqueous pH 4-8, room temperature): declined as the pH bacame basic
- solubility (physchem [2]; pH 4, water, pH of 4, read-out: aqueous solubility value): ~50 µg/mL (≈ 70.9 µM)
- solubility (physchem [2]; [7]): 10 µg/mL (≈ 14.2 µM)

Compound: COc1ccc(C[C@H]2NC(=O)/C=C/C[C@@H]([C@H](C)[C@@H](OC(=O)CN)[C@@H](Cl)c3ccccc3)OC(=O)[C@H](CC(C)C)OC(=O)C(C)(C)CNC2=O)cc1Cl [Compound 12]
- IC50 ([3]; Homo sapiens, Colon carcinoma cell): 0.1 nM
- solubility (physchem [1]; 0.05m acetate buffer, pH 4, aqueous buffer, Comparative solubilities, excipient 5: 0.05M Acetate buffer pH 4.0 100 %v/v): 30 µg/mL (≈ 39.3 µM)
- solubility (physchem [1]; emulphor el719 in acetate buffer, aqueous buffer, Comparative solubilities, excipient 4: Emulphor EL719 1 (w/v), volume adjusted 0.05M acetate buffer): 1500 µg/mL (≈ 1970 µM)
- solubility (physchem [1]; ethanol/acetate buffer, pH 4, organic solvent or mixture, Solubility in parenteral vehicle, vehicle 3: Ethanol 10 %v/v, 0.05M Acetate buffer pH 4.0 qs): 1290 µg/mL (≈ 1690 µM)
- solubility (physchem [1]; ethanol/propylene glycol/acetate buffer, pH 4, organic solvent or mixture, Solubility in parenteral vehicle, vehicle 2: Ethanol 10, Propylene Glycol 10 %v/v, 0.05 M Acetate buffer pH 4.0 qs): 1990 µg/mL (≈ 2610 µM)
- solubility (physchem [1]; ethanol/propylene glycol/acetate buffer, pH 4, organic solvent or mixture, Solubility in parenteral vehicle, vehicle 6: Ethanol 10, Propylene Glycol 25 %v/v, 0.05 M Acetate buffer pH 4.0 qs): 10300 µg/mL (≈ 13500 µM)
- solubility (physchem [1]; ethanol/propylene glycol/acetate buffer, pH 4, organic solvent or mixture, Solubility in parenteral vehicle, vehicle 7: Ethanol 10, Propylene Glycol 15 %v/v, 0.05 M Acetate buffer pH 4.0 qs): 4320 µg/mL (≈ 5660 µM)
- solubility (physchem [1]; ethanol/propylene glycol/citrate buffer, pH 4, organic solvent or mixture, Solubility in parenteral vehicle, vehicle 1: Ethanol 10, Propylene Glycol 10 %v/v, 0.05 M Citrate buffer pH 4.0 qs): 110 µg/mL (≈ 144 µM)
- solubility (physchem [1]; polysorbate 80/acetate buffer, pH 4, Solubility in parenteral vehicle, vehicle 5: Polysorbate 80 0.5 (w/v), 0.05 M Acetate buffer pH 4.0 qs): 2210 µg/mL (≈ 2900 µM)
- solubility (physchem [1]; polysorbate 80 in acetate buffer, aqueous buffer, Comparative solubilities, excipient 3: Polysorbate 80 1(w/v), volume adjusted 0.05M acetate buffer, BQL = Below quantitation limit, approximately 0.001 mg/ml): 1000 to 2000 µg/mL (≈ 1310 to 2620 µM)
- solubility (physchem [1]; propylene glycol/acetate buffer, pH 4, organic solvent or mixture, Solubility in parenteral vehicle, vehicle 4: Propylene Glycol 10 %v/v, 0.05 M Acetate buffer pH 4.0 qs): 1580 µg/mL (≈ 2070 µM)
- solubility (physchem [1]; propylene glycol/ethanol/acetate buffer, organic solvent or mixture): > 2000 µg/mL
- solubility (physchem [1]; propylene glycol/peg 3000/acetate buffer, organic solvent or mixture): > 2000 µg/mL
- solubility (physchem [2]; [7]): 30 µg/mL (≈ 39.3 µM)

Compound: COc1ccc(CC2NC(=O)C=CCC(C(C)C(OC(=O)CCN)C(Cl)c3ccccc3)OC(=O)C(CC(C)C)OC(=O)C(C)(C)CNC2=O)cc1Cl (stereo not shown) [Compound 14, Cryptophycin 55 b-alaninate hydrochloride salt]
- IC50 [3]: 21 nM

Compound: COc1ccc(CC2NC(=O)C=CCC(C(C)C(OC(=O)C(C)N)C(Cl)c3ccccc3)OC(=O)C(CC(C)C)OC(=O)C(C)(C)CNC2=O)cc1Cl (stereo not shown) [Compound 18, Cryptophycin 55 (L)-alaninate hydrochloride salt]
- IC50 [3]: 2.6 nM

Compound: COc1ccc(C[C@H]2NC(=O)/C=C/C[C@@H]([C@H](C)[C@@H](OC(=O)[C@@H](N)CCCCN)[C@@H](Cl)c3ccccc3)OC(=O)[C@H](CC(C)C)OC(=O)C(C)(C)CNC2=O)cc1Cl [Compound 22, Cryptophycin 55 (L)-lysinate di-hydrochloride salt]
- IC50 [3]: 7.2 nM

Compound: COc1ccc(CC2NC(=O)C=CCC(C(C)C(OC(=O)C(N)CCCCN)C(Cl)c3ccccc3)OC(=O)C(CC(C)C)OC(=O)C(C)(C)CNC2=O)cc1Cl (stereo not shown) [Compound 34, Cryptophycin 55 (D)-lysinate di-hydrochloride salt]
- IC50 ([3]; Table 2 of Example 94): 6.5 nM

Compound: COc1ccc(CC2NC(=O)C=CCC(C(C)C(OC(=O)[C@@H](N)CN)C(Cl)c3ccccc3)OC(=O)C(CC(C)C)OC(=O)C(C)(C)CNC2=O)cc1Cl (stereo partly drawn) [Compound 44, Cryptophycin 55 (S)-2,3-diaminopropionate dihydrochloride salt]
- IC50 ([3]; Table 2 of Example 94): 28 nM

Compound: COc1ccc(CC2NC(=O)C=CCC(C(C)C(OC(=O)C(N)CO)C(Cl)c3ccccc3)OC(=O)C(CC(C)C)OC(=O)C(C)(C)CNC2=O)cc1Cl (stereo not shown) [Compound 46, Cryptophycin 55 (L)-serinate hydrochloride salt]
- IC50 ([3]; Table 2 of Example 94): 50 nM

Compound: C=C1[C@@H](C)[C@H]2[C@H](Cc3ccccc3)NC(=O)[C@]23OC(=O)/C=C/[C@H](O)CCC[C@@H](C)C/C=C/[C@H]3[C@@H]1O [Cytochalasin B, cytochalasin B]
- effect on microfilaments ([4]; TRITC-phalloidin): complete depolymerization of microfilaments
- effect on distribution of microtubules and intermediate filaments ([4]; indirect immunofluorescence): did not affect the distribution of either microtubules or intermediate filaments

Compound: CC(=O)O[C@H]1C(=O)[C@@]2(C)[C@H]([C@H](OC(=O)c3ccccc3)[C@]3(O)C[C@H](OC(=O)[C@H](O)[C@@H](NC(=O)c4ccccc4)c4ccccc4)C(C)=C1C3(C)C)[C@]1(OC(C)=O)CO[C@@H]1C[C@@H]2O [Taxol, taxol]
- microtubule organization (A-10 cells [5]; 10µM taxol, compared with control cells): extensively bundled

Compound: CC[C@]1(O)C[C@@H]2CN(CCc3c([nH]c4ccccc34)[C@@](C(=O)OC)(c3cc4c(cc3OC)N(C)[C@H]3[C@@](O)(C(=O)OC)[C@H](OC(C)=O)[C@]5(CC)C=CCN6CC[C@]43[C@@H]65)C2)C1 [Vinblastine, vinblastine]
- microtubule depolymerization, non-pretreated cells (A-10 cells [5]; 100nM vinblastine, 24 hours): complete depolymerization of microtubules
- microtubule depolymerization after pretreatment with taxol (A-10 cells [5]; 3 hours 10µM taxol, then 100nM vinblastine, 24 hours): pretreatment with taxol prevented microtubule depolymerization
- microtubule repolymerization after removal of drug (A-10 cells [6]; then drug-free medium 1 hour): significant levels of microtubules
- microtubule repolymerization after removal of drug (A-10 cells [6]; then drug-free medium 24 hours): complete morphological recovery

Compound: Cryptophycin 55 3,6,9-tioxadecanoate [Compound 48]
- IC50 ([3]; Table 2 of Example 94): 10 nM

Compound: Cryptophycin 55 (2'-di-t-butylphosphatyl)phenylacetate [Compound 5]
- IC50 ([3]; Table 2 of Example 94): 31 nM

Compound: Cryptophycin 55 (D)-aspartate hydrochloride salt [Compound 40]
- IC50 ([3]; Table 2 of Example 94): 2 nM

Compound: Cryptophycin 55 (L) -γ-glutamate hydrochloride salt [Compound 42]
- IC50 ([3]; Table 2 of Example 94): 15 nM

Compound: Cryptophycin 55 (L)-aspartate hydrochloride salt [Compound 38]
- IC50 ([3]; Table 2 of Example 94): 1.6 nM

Compound: Cryptophycin 55 (L)-α-glutamate hydrochloride salt [Compound 36]
- IC50 ([3]; Table 2 of Example 94): 2.8 nM

Compound: Cryptophycin 55 N-methylpyridinium acetate salt [Compound 8]
- IC50 [3]: 2.2 nM
- IC50 ([3]; Table 2 of Example 94): 116 nM

Compound: Cryptophycin 55 N-t-Boc-3-(3-chloro-4-methoxyphenyl)-(D)-alaninate [Compound 9]
- IC50 ([3]; Table 2 of Example 94): 2.2 nM

Compound: Cryptophycin 55 N-t-Boc-(D)-alaninate [Compound 19]
- IC50 ([3]; Table 2 of Example 94): 0.1 nM

Compound: Cryptophycin 55 N-t-Boc-glycinate [Compound 11]
- IC50 ([3]; Table 2 of Example 94): 6.8 nM

Compound: Cryptophycin 55 Na-Ne-di-t-Boc-(L)-lysinate [Compound 21]
- IC50 ([3]; Table 2 of Example 94): 21 nM

Compound: Cryptophycin 55 glycidylglycinate hydrochloride salt [Compound 47]
- IC50 ([3]; Table 2 of Example 94): 2.5 nM

Compound: Cryptophycin 55 nicotinoate hydrochloride salt [Compound 7]
- IC50 [3]: 116 nM
- IC50 ([3]; Table 2 of Example 94): 3.7 nM
